Data: patent US20090155241A1, “Prophylactic/therapeutic agent for cancer” (JAPANESE FOUNDATION FOR CANCER RESEARCH, priority 2005, published 2009)

What was measured:
[1] = system: SF268/ACS5 and SF268/mock cells; assay: Cell viability after anticancer drug treatment, SF268/mock and SF268/ACS5; format: cell-based, human; settings: 48 hours; etoposide 1, 3 or 10 µg/ml, 5-fluorouracil 30, 100 or 300 µg/ml; FIG. 6A
Method: Changes of anticancer drug sensitivity in cancer cells by expression of ACS5 were examined. After 1, 3 or 10 µg/ml of etoposide or 30, 100 or 300 µg/ml of 5-fluorouracil was added to SF268/ACS5 established in EXAMPLE 4(2), which are cells capable of stably and highly expressing ACS5, and SF268/mock cells for control, incubation was performed in RPMI-1640 medium for 48 hours. After adding 20 μl of CellTiter 96AQueous One Solution Cell Proliferation Assay Kit (manufactured by Promega) and reacting for an hour, the cell viability was determined by measuring absorbance at 490 nm and expressed by % based on the value when no etoposide was added or no 5-fluorouracil was added (FIG. 6A).

[2] = system: p53-mutated cancer cells (NCI-H23, DMS114, HCT-15, KM-12, SF268, U251); assay: Cell growth inhibition, CellTiter 96 AQueous One, p53-mutated cancer cells; format: cell-based, human; settings: 4 or 8 μM, 48 hours, RPMI-1640; FIG. 3A
Method: (§1) NCI-H23, DMS114, HCT-15, KM-12, SF268 and U251 cells, which are p53-mutated cancer cells, were incubated in RPMI-1640 medium containing 4 or 8 μM Triacsin c for 48 hours. On the other hand, human normal cell lines TIG108, TIG109, ASF4-1, CCD33Co and TIG114 cells were incubated in MEM containing 4 or 8 μM Triacsin c for 48 hours. After completion of the incubation, 20 μl of CellTiter 96AQueous One Solution Cell Proliferation Assay Kit (manufactured by Promega Corp.) was added and reacted for an hour. Absorbance was then measured at 490 nm.
(§2) The results are shown by % based on absorbance in the absence of Triacsin c.

[3] = system: human normal cell lines TIG108, TIG109, ASF4-1, CCD33Co and TIG114; assay: Cell growth inhibition, CellTiter 96 AQueous One, human normal cell lines; format: cell-based; settings: 4 or 8 μM, 48 hours, MEM; FIG. 3A
Method: as §1, §2

p53-mutated cancer cells = assay: Caspase activation as index of apoptosis induction (Ac-DEVD-MCA substrate); format: cell-based, human; settings: 8 μM, 30 hours, RPMI medium; FIG. 3B
Method: (§3) In order to examine if the cell growth inhibitory effect by Triacsin c was induced by apoptosis, the caspase activation was measured as an index of the apoptosis induction using acetyl-Asp-Glu-Val-Asp-(4-methylcoumaryl-7-amide) as a substrate.

ACS = assay: Intracellular ACS activity in cell extract ([14C]-palmitic acid); format: cell-based, human; settings: 4 μM, 24 hours, FIG. 4B
Method: The ACS activity was assayed by the method of Banis, et al. (Biochem. Biophys. Acta, 348, 210-220, 1974). To the cell extract (100 μl) obtained by homogenization, 1.2 μmol magnesium chloride, 5 μmol ATP, 3 μmol potassium fluoride, 0.1 μmol coenzyme A, 3 μmol 2-mercaptoethanol, 0.03 μmol palmitic acid and 0.1 μCi [^14C]-palmitic acid (150 μl) were added and the mixture was reacted at 37° C. for 5 minutes. After the reaction was terminated by adding 2.25 ml of isopropanol-heptane-1M sulfuric acid (40:10:1), 1.5 ml of heptane and 1 ml of water were added and the upper layer was removed. The lower layer containing [^14C]-palmitoyl CoA produced after the reaction was washed twice with 2 ml of heptane-8 mg of palmitic acid, and the ^14C level was measured using a liquid scintillation counter.
The ACS activities of SF268/mock cells and SF268/ACS5 cells were assayed by the method described in EXAMPLE 4(3).

SF268 cells = assay: Cell growth inhibition in SF268 cells; format: cell-based, human; settings: about 4 μM (1 to 4 μM), treated for 48 hours; FIG. 4C
Method: as §1
(§4) In addition, the caspase activation as an index of apoptosis was examined.

SF268/ACS5 cells [4] = assay: Cell growth inhibition in ACS5-expressing SF268 cells; format: cell-based, human; settings: FIG. 4C
Source text: To examine if the p53-mutated cancer cell-selective apoptosis by Triacsin c was induced by ACS activity inhibition, cells stably expressing Triacsin c-resistant ACS isozyme ACS5 were established as follows. The retroviral vector pHa-ACS5—FLAG-IRES-DHFR constructed in EXAMPLE 4(1) and empty vector pHa-IRES-DHFR were introduced into mouse fibroblast PA317 using mammalian transfection kit (Stratagene) to give viral stock. The resulting viral stock was further infected into human glioma SF268 cells and selected with 100 ng/ml of methotrexate as a selective agent to give the stably expressing strain SF268/ACS5 and SF268/mock for control. The cell extract from each cell was analyzed by western blot using anti-FLAG-M2 antibody (Sigma) (and anti-tubulin antibody (Sigma) for control).
as §4

SF268/ACS5 cells [5] = assay: Caspase activation in ACS5-expressing SF268 cells; format: cell-based, human; settings: with expression of ACS5; FIG. 4D
Method: as §3, §4

[6] = system: Human lung cancer NCI-H23; assay: Growth inhibitory effect in nude mice bearing p53-mutated cancer; format: in vivo, BALB/cAJcl-nu nude mice
Method: In order to examine the p53-mutated cancer growth inhibitory effect by apoptosis induction via Triacsin c-induced ACS activity inhibition in vivo, a test for administering p53-mutated cancer-bearing nude mice was performed. Human lung cancer NCI-H23 was used as the p53-mutated cancer cell line and implanted subcutaneously into BALB/cAJcl-nu nude mice (9 weeks old). On day 0 when the tumor volume reached 50-150 mm^3, 40 μl (30 mg/kg/day) of Triacsin c was administered by intratumoral injection (n=5). Triacsin c was administered for 3 consecutive days on days 0, 1 and 2. For control group, 40 μl of saline was administered by the same dosing schedule (n=5). For evaluation of tumor volume, the length (L) and width (W) of the tumor were measured, and the tumor volume (TV) was calculated as TV=L×W×W/2. Relative tumor volume was determined as the value when a mean value of the tumor volume on day 0 in control group was made 1. Tumor growth was measured for 21 days after drug administration. Statistical significance was determined with a Student t test.

[7] = system: fatty acid metabolizing enzyme ACS; settings: Biochem. Biophys. Acta, 921, 595-598, 1987; cited from earlier work

| SMILES | cell viability in SF268/ACS5 as compared to SF268/mock [1] | growth inhibitory effect (cell viability) [1] | cell growth inhibitory effect [2] | cell growth inhibitory effect [3] | caspase activation (p53-mutated cancer cells) | intracellular ACS activity (ACS; SF268/ACS5 cells (ACS5-overexpressed)) | intracellular ACS activity (ACS; SF268/mock cells) | cell growth (SF268 cells) | Triacsin c-induced cell growth inhibitory effect (SF268/ACS5 cells [4]) | caspase activation (SF268/ACS5 cells [5]) | tumor volume versus control group ([6]; 30 mg/kg/day intratumoral injection, days 0, 1 and 2, measured for 21 days, p<0.05, FIG. 5) | weight loss ([6]; cancer-bearing nude mice, 30 mg/kg/day intratumoral, 3 consecutive days) | inhibition activity against ACS [7] |
| --- | --- | --- | --- | --- | --- | --- | --- | --- | --- | --- | --- | --- | --- |
| O=c1[nH]cc(F)c(=O)[nH]1 [5-fluorouracil] | significantly high cell viability | growth inhibitory effect was produced concentration-dependently | – | – | – | – | – | – | – | – | – | – | – |
| COc1cc([C@@H]2c3cc4c(cc3[C@@H](O[C@@H]3O[C@@H]5CO[C@@H](C)O[C@H]5[C@H](O)[C@H]3O)[C@H]3COC(=O)[C@H]23)OCO4)cc(OC)c1O [etoposide] | significantly high cell viability | growth inhibitory effect was produced concentration-dependently | – | – | – | – | – | – | – | – | – | – | – |
| CCCC=CCC=CC=CC=NN=NO [Triacsin c, 1-Hydroxy-3-undeca-2,4,7-triene-1-ylidenetriaz-1-ene] | – | – | potent cell growth inhibitory effect | no cell growth inhibitory effect was observed | strong activation of caspase | any significant reduction of the ACS activity was not observed | markedly reduced | strongly inhibited the growth | almost completely cancelled | strongly counteracted | significant tumor regression effect | any weight loss was not observed | specific inhibition activity |
